Results from patent US20250064774A1, “FORMULATIONS AND METHODS OF MAKING AND USING THE SAME” (AraVai Global LLC, priority 2021, published 2025).

Test system: skin of the intrascapular regions of the back
Assay: Repeat insult patch test under occlusive conditions (induction and challenge)
Details: positive control
Source text: The raw material ingredients to be tested under occlusive conditions were placed on an 8-millimeter aluminum Finn Chamber® (Epitest Ltd. Oy, Tuusula, Finland) supported on Scanpor® Tape (Norgesplaster A/S, Kristiansand, Norway) or an 8-millimeter filter paper coated aluminum Finn Chamber® AQUA supported on a thin flexible transparent polyurethane rectangular film coated on one side with a medical grade acrylic adhesive, consistent with adhesive used in state-of-the-art hypoallergenic surgical tape or a 7 mm IQ-ULTRA® closed cell system which is made of additive-free polyethylene plastic foam with a filter paper incorporated. It is supplied in units of 10 chambers on a hypoallergenic non-woven adhesive tape; the width of the tape is 52 mm and the length is 118 mm or other equivalents. […]
Approximately 0.02-0.05 mL for liquid materials and/or 0.02-0.05 g for solid materials of the test material was used for the study. […] Prior to each reapplication, the test sites evaluated by trained laboratory personnel. […] Test sites were evaluated by trained laboratory personnel 48 and 96 hours after application. In the event of an adverse reaction, the area of erythema and edema were measured. […] Subjects were instructed to report any delayed reactions that might occur after the final reading. […]

CCCCCCCCCCCCOS(=O)(=O)[O-].[Na+] [2.0% Sodium Lauryl Sulfate Solution, Sodium Lauryl Sulfate]
subjects with a Grade 1 reaction: ten | subjects with a Grade 4 reaction: one
